The results in this text go back to patent US20240092761A1, “QUINAZOLINE COMPOUNDS AND METHODS OF USE” (IAMBIC THERAPEUTICS, INC., priority 2022, published 2024).

Bounds are passed on as bounds.

The target in assay [1] is CDK2/Cyclin E1 full length (Homo sapiens (Human), UniProt P24941). The experiment in a line: CDK2/Cyclin E1 Full Length ADP-Glo Kinase Assay. It counts as biochemical. Conditions: 20 uM ATP, read-out: CDK2/ CyclinE1 IC50. The protocol: CDK2/Cyclin E1 Full Length ADP-Glo Kinase Assay
The purpose of CDK2/Cyclin E1 assay is to evaluate the inhibition (% inhibition and IC50 values) of small molecule inhibitors by using a Luminescent based ADP-Glo assay. CDK2/Cyclin E1 full length catalyzes the production of ADP from ATP. ADP-Glo assay monitors ADP producing biochemical reactions. ADP-Glo is performed in 2 steps upon completion of kinase reaction: a combined termination of kinase reaction and depletion of remaining ATP in the first step, and conversion of generated ADP to ATP and the newly produced ATP to light output using luciferase/luciferin reaction in the second step. The luminescent signal generated is proportional to the ADP concentration produced and is correlated with the kinase activity. CDK2/Cyclin E1 was purchased from Eurofins (Cat 14-475M). Typical reaction solutions (10 uL final reaction volume) contained 2% DMSO (f inhibitor), 10 mM MgCI2, 1 mM EGTA, 0.05% BSA, 2 mM DTT, 20 uM ATP (ATP Km=64.78 uM), 0.01% Brig-35, 0.75 uM substrate, and 0.328 nM wild-type full length CDK2/Cyclin E1 enzyme complex in 50 mM HEPES buffer at pH 7.5. The assay was initiated with the addition of ATP-containing substrate solution, following a 30-minute pre-incubation of enzyme and inhibitor at room temperature in the reaction mixture. The reaction was stopped after 90 minutes at room temperature by the addition of 10 uL of ADP-GLO Reagent. After a 90 minute incubation, 20 uL of Kinase Detection Reagent was added. Samples were incubated for 40 minutes, after which plate well luminescence was measured on a Envision microplate reader. The IC50 determinations were made from a plot of the fractional velocity as a function of inhibitor concentration fit to the 4 parameters IC50 equation.

The target of a further assay is CDK1/Cyclin B1 (Homo sapiens (Human), UniProt P06493). The assay can be described thus: CDK1/Cyclin B1 ADP-Glo Kinase Assay. It counts as biochemical. The following applies: 80 uM ATP. On the procedure:
CDK1/Cyclin B1 ADP-Glo Kinase Assay
(§1) The purpose of CDK1/Cyclin B1 assay is to evaluate the inhibition (% inhibition and IC50 values) of small molecule inhibitors by using a Luminescent based ADP-Glo assay. CDK1/Cyclin B1 catalyzes the production of ADP from ATP. ADP-Glo assay monitors ADP producing biochemical reactions. ADP-Glo is performed in 2 steps upon completion of kinase reaction: a combined termination of kinase reaction and depletion of remaining ATP in the first step, and conversion of generated ADP to ATP and the newly produced ATP to light output using luciferase/luciferin reaction in the second step. The luminescent signal generated is proportional to the ADP concentration produced and is correlated with the kinase activity. CDK1/Cyclin B1 was purchased from Carna (Cat 04-102). Typical reaction solutions (10 uL final reaction volume) contained 2% DMSO (f inhibitor), 10 mM MgCl2, 1 mM EGTA, 0.05% BSA, 2 mM DTT, 80 uM ATP (ATP Km=78.6 uM), 0.01% Brig-35, 0.75 uM substrate, and 4.917 nM CDK1/Cyclin Bl enzyme complex in 50 mM HEPES buffer at pH 7.5. The assay was initiated with the addition of ATP-containing substrate solution, following a 30-minute pre-incubation of enzyme and inhibitor at room temperature in the reaction mixture. The reaction was stopped after 90 minutes at room temperature by the addition of 10 uL of ADP-GLO Reagent. After a 90 minute incubation, 20 uL of Kinase Detection Reagent was added. Samples were incubated for 40 minutes, after which plate well luminescence was measured on a Envision microplate reader. The IC50 determinations were made from a plot of the fractional velocity as a function of inhibitor concentration fit to the 4 parameters IC50 equation.

In another assay the target is CDK4/Cyclin D1 (Homo sapiens (Human), UniProt P11802). The assay can be described thus: CDK4/Cyclin D1 CHEF Assay (AQT0258 peptide). The class given is biochemical. The following applies: 200 uM ATP, read-out: CDK4/ CyclinD1 AQT IC50. An excerpt:
CDK4/Cyclin D1 CHEF Assay
The purpose of CDK4/Cyclin Dl assay is to evaluate the inhibition (% inhibition and IC50 values) of small molecule inhibitors by using a Chelation-Enhance Fluorescence (CHEF) assay. In a CHEF assay, phosphorylation of a peptide substrate results in proportional increase in fluorescence. CHEF kinase assay use peptide substrates containing a synthetic alpha-amino acid with a side chain bearing an 8-hydroxyquinoline derivative (sulfonamido-oxide, Sox). Upon phosphorylation of a nearby serine, threonine or tyrosine and in the presence of Mg(II), the spectral properties of the Sox residue are altered, emitting 485 nm wavelength light when excited with a 360 nm wavelength light source. CDK4/Cyclin D1 catalyzes the phosphoryl transfer to the SOX-labeled substrate peptide AQT0258 from Assayquant Technologies. Typical reaction solutions contained 2% DMSO (+/−inhibitor), 10 mM MgCl2, 1 mM DTT, 200 uM ATP (ATP Km=195.2 uM), 0.012% Brig-35, 10 uM AQT0258 peptide, 0.02% BSA, 1% Glycerol, 0.55 mM EGTA, 2.5 nM CDK4/Cyclin D1 in 54 mM HEPES buffer at pH 7.5. The reaction was initiated with the addition of substrate solution, following a 30-minute pre-incubation of enzyme and inhibitor at 22° C. in the reaction mix. Reactions were allowed to proceed for 3 hrs at 22° C., followed by fluorescence read of the reaction. The IC50 determinations were made from a plot of the fractional velocity as a function of inhibitor concentration fit to the 4 parameters IC50 equation.

Another assay deals with CDK6/Cyclin D3 (Homo sapiens (Human), UniProt Q00534). The assay can be described thus: CDK6/Cyclin D3 ADP-Glo Kinase Assay. It counts as biochemical. Conditions: 100 uM ATP, read-out: CDK6/ CyclinD3 IC50. The protocol: CDK6/Cyclin D3 ADP-Glo Kinase Assay
Chain of CDK6/Cyclin D3 (Q00534 whole entry): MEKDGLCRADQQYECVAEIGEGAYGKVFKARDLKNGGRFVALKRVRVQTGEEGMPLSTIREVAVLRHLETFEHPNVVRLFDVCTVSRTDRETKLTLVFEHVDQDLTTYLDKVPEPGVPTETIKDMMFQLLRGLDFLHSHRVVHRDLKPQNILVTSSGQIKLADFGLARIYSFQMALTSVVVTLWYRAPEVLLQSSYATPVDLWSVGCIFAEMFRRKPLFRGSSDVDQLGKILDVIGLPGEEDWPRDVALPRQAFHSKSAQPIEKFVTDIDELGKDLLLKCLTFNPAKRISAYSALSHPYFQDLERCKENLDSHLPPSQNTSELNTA
Chain of CDK6/Cyclin D3 (P30281 whole entry partner): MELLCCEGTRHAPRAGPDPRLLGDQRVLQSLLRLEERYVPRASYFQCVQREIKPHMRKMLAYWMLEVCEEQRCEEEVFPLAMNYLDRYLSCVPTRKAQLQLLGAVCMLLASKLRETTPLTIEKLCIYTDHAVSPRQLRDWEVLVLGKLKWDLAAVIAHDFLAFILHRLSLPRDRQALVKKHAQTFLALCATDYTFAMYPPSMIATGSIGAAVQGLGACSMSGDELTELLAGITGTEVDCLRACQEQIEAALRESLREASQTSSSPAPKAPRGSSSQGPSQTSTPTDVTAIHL
as §1, with “of the CDK6/Cyclin D3” for “of CDK1/Cyclin B1”, “values) in the presence” for “values)”, “assay. CDK6/Cyclin D3” for “assay. CDK1/Cyclin B1”, “activity. CDK6/Cyclin D3” for “activity. CDK1/Cyclin B1”, “from Carna. […]” for “from Carna (Cat 04-102). Typical reaction solutions (10 uL final reaction volume) contained 2% DMSO (f inhibitor), 10 mM MgCl2, 1 mM EGTA, 0.05% BSA, 2 mM DTT, 80 uM ATP (ATP Km=78.6 uM), 0.01% Brig-35, 0.75 uM substrate, and 4.917 nM CDK1/Cyclin Bl enzyme complex in 50 mM HEPES buffer at pH 7.5.”, “a 90-minute” for “a 90 minute”
(ADP-Glo turns the ADP formed in a reaction into a luminescent signal.)

For another assay, the system named is OVCAR-3 cells. The experiment in a line: Cell Growth Inhibition, OVCAR-3 (CellTiterGlo, 6 days). It counts as cell-based. The following applies: Homo sapiens, 144 h; OVCAR-3, 6-day treatment, CellTiterGlo 2.0. The text has this: (§2) MCF-7 and OVCAR-3 cells were used to evaluate the anti-proliferation activity of the CDK inhibitors. MCF-7 (ATCC, HTB-22) cells are epithelial cells from a patient with ER+ metastatic adenocarcinoma. OVCAR-3 (ATCC, HTB-161) cells were derived from malignant ascites of a patient with ovarian cancer and are known to have CCNE1 amplification. Both cell lines were maintained in RPMI media supplemented with 10% fetal bovine serum. For cell growth inhibition assay, CDK inhibitors in DMSO solution were dispensed with either Echo 655 (Beckman Coulter) or Tecan D300e (HP) into 384-well plates (Corning #3765) and the 384-well plates were UV-sterilized prior to the assay. The inhibitors were typically tested in the 10-10,000 nM concentration range with half-log serial dilutions. MCF-7 or OVCAR-3 (500 cells/30 μL/well) were added to each well using Multidrop Combi (ThermoFisher) using standard cassettes. The assay plates with cells were cultured at 37° C., 5% CO2 for 6 days. At the end of the 6-day treatment, 30 μL of CellTiterGlo 2.0 (Promega) was added to each well and the luminescent signal was read using CLARIOstar plus (BMG). The percentage of cell growth inhibition (% CGI) was calculated using the following formula % CGI=100−100×luminescencesample/luminescencecontrol. The half maximal inhibitory concentration (IC50) was determined by nonlinear curve fitting (four parameters, variable slope).
Background: Cellular ATP, detected with luciferase, serves as a proxy for viable cell number.

In the next assay the test system is MCF-7 cells. The assay can be described thus: Cell Growth Inhibition, MCF-7 (CellTiterGlo, 6 days). The class given is cell-based. The following applies: Homo sapiens, MCF7, 144 h; MCF-7, 6-day treatment, CellTiterGlo 2.0.
Text: as §2

Chain of CDK4/Cyclin D1 (P11802 whole entry): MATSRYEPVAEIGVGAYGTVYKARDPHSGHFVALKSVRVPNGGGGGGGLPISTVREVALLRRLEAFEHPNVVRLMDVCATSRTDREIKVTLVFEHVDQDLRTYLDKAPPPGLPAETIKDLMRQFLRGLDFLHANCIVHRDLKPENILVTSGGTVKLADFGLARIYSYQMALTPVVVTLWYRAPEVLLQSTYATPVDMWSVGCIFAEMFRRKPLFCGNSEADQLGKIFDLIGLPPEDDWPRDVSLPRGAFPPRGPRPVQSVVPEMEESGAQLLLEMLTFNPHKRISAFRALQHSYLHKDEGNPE
Chain of CDK4/Cyclin D1 (P24385 whole entry partner): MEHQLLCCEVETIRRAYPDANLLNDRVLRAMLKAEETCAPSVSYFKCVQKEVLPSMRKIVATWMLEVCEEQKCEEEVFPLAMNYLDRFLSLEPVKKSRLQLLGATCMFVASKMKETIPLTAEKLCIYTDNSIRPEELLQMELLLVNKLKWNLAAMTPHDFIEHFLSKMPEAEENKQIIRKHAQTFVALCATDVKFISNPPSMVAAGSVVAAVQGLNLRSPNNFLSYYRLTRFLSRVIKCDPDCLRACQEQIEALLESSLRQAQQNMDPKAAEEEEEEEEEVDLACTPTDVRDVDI
Chain of CDK1/Cyclin B1 (P06493 whole entry): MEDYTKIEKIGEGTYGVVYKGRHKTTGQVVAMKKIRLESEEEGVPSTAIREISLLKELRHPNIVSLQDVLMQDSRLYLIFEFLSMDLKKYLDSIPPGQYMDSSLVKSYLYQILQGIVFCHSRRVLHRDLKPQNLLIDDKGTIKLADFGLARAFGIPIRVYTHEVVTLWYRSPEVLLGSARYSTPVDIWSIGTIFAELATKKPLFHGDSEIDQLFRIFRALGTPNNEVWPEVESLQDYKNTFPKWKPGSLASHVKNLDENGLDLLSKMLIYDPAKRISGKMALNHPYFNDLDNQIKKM
Chain of CDK1/Cyclin B1 (P14635 whole entry partner): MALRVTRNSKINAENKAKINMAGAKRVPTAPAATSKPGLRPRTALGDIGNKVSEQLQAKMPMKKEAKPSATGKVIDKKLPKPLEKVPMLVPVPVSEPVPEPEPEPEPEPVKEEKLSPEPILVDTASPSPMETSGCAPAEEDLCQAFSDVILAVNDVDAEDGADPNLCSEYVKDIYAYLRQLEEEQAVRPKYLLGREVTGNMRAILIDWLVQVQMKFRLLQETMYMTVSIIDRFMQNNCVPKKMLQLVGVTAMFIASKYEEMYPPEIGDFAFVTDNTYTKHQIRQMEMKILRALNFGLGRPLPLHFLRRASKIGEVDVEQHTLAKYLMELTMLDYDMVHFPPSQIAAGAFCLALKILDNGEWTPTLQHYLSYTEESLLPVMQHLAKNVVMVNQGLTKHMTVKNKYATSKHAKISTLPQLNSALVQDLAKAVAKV

As for `COC1CC2(C1)CC(c1cccc3cnc(NC4CCN(S(C)(=O)=O)CC4)nc13)C2` (stereo not shown) [Example 107, 8-(6-methoxyspiro[3.3]heptan-2-yl)-N-(1-(methylsulfonyl)piperidin-4-yl)quinazolin-2-amine], the IC50 in assay [1] was under 200 nM; against CDK1/Cyclin B1, 500 to 2000 nM; at CDK4/Cyclin D1 it was under 200 nM; at CDK6/Cyclin D3, under 200 nM.

For the compound `CN1Cc2ccc(Nc3ncc4cc(C(F)F)cc(N5CC6(CN(C)C6)C5)c4n3)cc2C1` [Example 57, 6-(difluoromethyl)-8-(6-methyl-2,6-diazaspiro[3.3]heptan-2-yl)-N-(2-methylisoindolin-5-yl)quinazolin-2-amine], the IC50 was 500 to 2000 nM in the assay with OVCAR-3 cells; 500 to 2000 nM in the assay on MCF-7 cells; under 200 nM in assay [1]; over 2000 nM against CDK1/Cyclin B1; under 200 nM on CDK4/Cyclin D1; under 200 nM on CDK6/Cyclin D3.

For the compound `CN1CC2(CC(c3cc(C(F)F)cc4cnc(NC5CCN(S(C)(=O)=O)CC5)nc34)C2)C1` [Example 67, 6-(difluoromethyl)-8-(2-methyl-2-azaspiro[3.3]heptan-6-yl)-N-(1-(methylsulfonyl)piperidin-4-yl)quinazolin-2-amine], the IC50 (in the assay with OVCAR-3 cells; in the assay with MCF-7 cells; in assay [1]; against CDK1/Cyclin B1) was under 200 nM in each case.

As for `O[C@@H]1COCC[C@H]1Nc1ncc2cc(C(F)F)cc(N3CC(F)(F)C4(CNC4)C3)c2n1` (racemic) [Example 117, (3S,4R)-4-((8-(8,8-difluoro-2,6-diazaspiro[3.4]octan-6-yl)-6-(difluoromethyl)quinazolin-2-yl)amino)tetrahydro-2H-pyran-3-ol], the IC50 in the assay with OVCAR-3 cells is over 2000 nM; in the assay with MCF-7 cells, 500 to 2000 nM; in assay [1] it was under 200 nM; at CDK1/Cyclin B1, over 2000 nM; at CDK4/Cyclin D1, under 200 nM; on CDK6/Cyclin D3, under 200 nM.

As for `Cn1cc(S(=O)(=O)N2CCC(Nc3ncc4cccc(N5CC(O)(C(F)F)C5)c4n3)CC2)cn1` [Example 119, 3-(difluoromethyl)-1-(2-((1-((1-methyl-1H-pyrazol-4-yl)sulfonyl)piperidin-4-yl)amino)quinazolin-8-yl)azetidin-3-ol], the IC50 was 500 to 2000 nM in the assay with OVCAR-3 cells; under 200 nM in assay [1]; under 200 nM against CDK1/Cyclin B1; under 200 nM on CDK4/Cyclin D1; under 200 nM on CDK6/Cyclin D3.

Take `COC1CC2(C1)CC(c1cc(C(F)F)cc3cnc(NC4CCN(S(C)(=O)=O)CC4)nc13)C2` (stereo not shown) [Example 108, 6-(difluoromethyl)-8-(6-methoxyspiro[3.3]heptan-2-yl)-N-(1-(methylsulfonyl)piperidin-4-yl)quinazolin-2-amine]: the IC50 (in assay [1]; against CDK1/Cyclin B1; on CDK4/Cyclin D1; at CDK6/Cyclin D3) was under 200 nM in each case.

In the case of `CS(=O)(=O)N1CCC(Nc2ncc3cccc(C4CC5(CNCC5(F)F)C4)c3n2)CC1` (stereo not shown) [Example 122, 8-(8,8-difluoro-6-azaspiro[3.4]octan-2-yl)-N-(1-(methylsulfonyl)piperidin-4-yl)quinazolin-2-amine], the IC50 (in assay [1]; against CDK1/Cyclin B1; on CDK4/Cyclin D1; on CDK6/Cyclin D3) was under 200 nM in each case.

In the case of `CS(=O)(=O)N1CC[C@@H](Nc2ncc3cc(C(F)F)cc(N4CC(F)(F)C5(CNC5)C4)c3n2)[C@H](O)C1` (racemic) [Example 118, (3R,4R)-4-((8-(8,8-difluoro-2,6-diazaspiro[3.4]octan-6-yl)-6-(difluoromethyl)quinazolin-2-yl)amino)-1-(methylsulfonyl)piperidin-3-ol], the IC50 is over 2000 nM in the assay with OVCAR-3 cells; under 200 nM in assay [1]; 500 to 2000 nM against CDK1/Cyclin B1; under 200 nM on CDK4/Cyclin D1; under 200 nM on CDK6/Cyclin D3.

With `CC(=O)N1CCC2(CCC(c3cccc4cnc(NC5CCN(S(C)(=O)=O)CC5)nc34)C2)C1` (stereo not shown) [Example 35], the IC50 in the assay with OVCAR-3 cells is over 2000 nM; with MCF-7 cells, 500 to 2000 nM; in assay [1] it was under 200 nM; against CDK1/Cyclin B1 it was 200 to 500 nM; at CDK6/Cyclin D3 it was under 200 nM.
